Experimental data: patent US11033473B2, “Hair restoration/growth stimulating agent” (Kinjirushi Co., Ltd., priority 2015, dated 2021)
Like-named read-outs stand apart in the source and are kept apart here.

What was measured:
[1] = test system: FGF-7 gene; assay: FGF-7 gene expression in human hair follicle dermal papilla cells (real-time PCR); format: cell-based; conditions: cultured for two hours
Protocol: Then, the cells are cultured for two hours, and total RNA was recovered and reverse transcribed into cDNA. Thereafter, FGF-7 gene expression was measured by real-time PCR. Using GAPDH gene as an internal reference, FGF-7 gene expression was calculated as a relative value of the negative control section. The experiment was carried out three times. Details of each procedure are shown below.
First, collection of total RNA from the cells and cDNA synthesis were carried out according to the steps of FastLane Cell RT-PCR kit.
Step 7-1. 500 μL per well of buffer FCW was added to the cells washed with PBS, and the buffer FCW was immediately removed and aspirated.
Step 7-2. 200 μL per well of the buffer FCP was added. After incubation for 5 minutes at room temperature (25° C.), FastLane lysate was transferred to a 96-well PCR tube. The tube was stored at −80° C. until the next cDNA synthesis.
Step 7-3. Lysate in Step 7-2 was dissolved at room temperature. 2 μL of gDNA Wipeout Buffer, 1μL of FastLane lysate and 11 μL of RNase-free water were added to a new PCR tube, caused to react for 5 minutes at 42° C., and then transferred immediately to ice. (In fact, an appropriate amount of master mix of gDNA Wipeout Buffer and RNase-free water was added to the tube containing lysate.)
Step 7-4. 6 μL of the reverse transcription reaction master mix was added to 14 μL of reaction solution obtained in Step 7-3 and incubated for 30 minutes at 42° C. (1 μL of Quantiscript Reverse Transcriptase, 4 μL of Quantiscript RT Buffer, 1 μL of RT Primer Mix/tube).
Step 7-5. The reaction solution was treated for 3 minutes at 95° C., to inactivate the reverse transcriptase. […]
The relative expression level of each gene was calculated as follows. From an intersection of an amplification curve of each gene and a threshold line of each gene, a Ct value (the number of PCR cycles) was calculated. ΔCt value is obtained by subtracting a Ct value of the internal reference GAPDH gene from a Ct value of the target gene (Ct values (target gene)−Ct (GAPDH2)=ΔCt value). […]

[2] = test system: human hair follicle dermal papilla cells
Protocol: (§2) Human hair follicle dermal papilla cells (Cat. No. CA60205a, Lot No. 2548, derived from person, distributed by Toyobo Co., Ltd.), which are widely used in efficacy evaluation of a hair restoration agent, were used as test cells. The human hair follicle dermal papilla cells were cultured in a carbon dioxide incubator (5% CO2, 37° C.) using a follicle dermal papilla cell proliferation medium (Cat. No. TMTPGM-250, distributed by Toyobo Co., Ltd.) A flask used for the culture was coated with collagen I before use. For cell passage, cells were separated from the flask using a follicle dermal papilla cell dedicated subculture set (Cat. No. CA090K, distributed by Toyobo Co., Ltd.)
(§3) The human hair follicle dermal papilla cells were seeded in a collagen I-coated 96-well plate at 5×10^3 cells/well (0.1 mL/well in this test). After one-day culturing (50% confluent) in the carbon dioxide incubator (5% CO2, 37° C.), the cells were transferred to a test medium containing isosaponarin, and then cultured for three days. Cell proliferation was compared using Living Cell Count Reagent SF (Cat. No. 07553, distributed by Nacalai Tesque, Inc.) In consideration of possible influence on absorbance by precipitates adhering to the cells in absorbance measurement in living cell count, the culture supernatant was removed after the end of the three-day culturing, and the cells were washed with a phosphate-buffered saline (PBS). After washing with PBS, 100pL per well of a medium containing 10% of Living Cell Count Reagent SF was added. Absorbance (measurement wavelength 450 nm, reference wavelength 595 nm) of the culture supernatant was measured 30 minutes and 90 minutes after the addition. An amount of change (ABS/hr) in absorbance ABS per hour was calculated from values at 90 minutes and 30 minutes. The experiment was carried out three times.

[3] = test system: human hair follicle dermal papilla cells; assay: Evaluation of human hair follicle dermal papilla cell-activating action (Living Cell Count Reagent SF, ABS/hr); format: cell-based; conditions: Example 7, three days
[4] = test system: human hair follicle dermal papilla cells; assay: as above; format: cell-based; conditions: for cell-activating action vs 0.1% DMSO experimental section: 100 μmol/L
Protocol: After one-day culturing in the carbon dioxide incubator, the cells were transferred to a follicle dermal papilla cell proliferation medium in which isosaponarin was dissolved at final concentrations of 0.1 μmol/L, 10 μmol/L, and 1000 μmol/L. Then, the cells were cultured for one day and three days, and proliferation of each cell was compared using Living Cell Count Reagent SF. After the one-day and three-day culturing were completed, the supernatant culture was removed, and the cells were washed with PBS. After washing with PBS, a medium containing 10% Living Cell Count Reagent SF at 300 μL/well was added. The culture supernatant at 100 μL/well was transferred to another 96-well plate 30 and 90 minutes after the addition. Absorbance was measured at a microplate reader (measuring wavelength 450 nm, reference wavelength 595 nm). […] The experiment was carried out five times. A non-addition control section was used as a comparison control section of isosaponarin.
As a positive control, the same test was carried out also for the case of adding adenosine (Cat. No. 016-10493, distributed by Wako Pure Chemical Industries, Ltd.) at final concentration of 100 μmol/L and minoxidil (Cat. No. M4145-25MG, distributed by Sigma-Aldrich Japan Co., Ltd.) at final concentration of 30 μmol/L. Adenosine was dissolved in dimethyl sulfoxide (DMSO) and added to a test medium at final concentration of 0.1% DMSO. As a solvent control, 0.1% DMSO experimental section was provided. Minoxidil was dissolved in ethanol and added to a test medium at final concentration of 0.1% ethanol. […] Thus, a non-addition control section was used for a comparison control section of minoxidil.
Significance test was performed in the comparison experimental section. The test was carried out as Student T-test. It is determined that there is significance when P<0.05 (less than 5% if null hypothesis is true), as described in the figures.
A 100 mmol/L stock solution of adenosine (positive control substance) was prepared using DMSO as a solvent, and added to a test medium at final concentration of 100 μmol/L (0.1% DMSO experimental section was used as a solvent control). A 15 mmol/L stock solution of minoxidil was prepared with 50% ethanol, and added to a test medium at final concentration of 30 μmol/L. Since solvent (ethanol) concentration in this case is 0.2%, 0.2% ethanol experimental section was used as the control section.
Since the concentration of the solvent in the highest concentration of each test substance is 0.1% or less, it is determined that there is no influence of the solvent in the present test, and a non-addition control section was used as a reference in comparison of significant difference. The test was conducted as a Student T-test.
(§1) Thereafter, the cells were cultured for three days, and proliferation of each cell is compared using Living Cell Count Reagent SF. The experiment was carried out five times. After three-days culturing was completed, supernatant liquid of the culture was collected and a VEGF production amount of the supernatant was measured by ELISA kit as in Example 2.
Further, the supernatant was removed. The cells were washed with PBS, and a medium containing 10% Living Cell Count Reagent SF (300 μL/well) was then added. 100 μL per well of the culture supernatant 30 and 90 minutes after the addition was transferred to another 96-well plate and absorbance was measured with a microplate reader (measuring wavelength 450 nm, reference wavelength 595 nm).

[5] = test system: VEGF; assay: VEGF production promoting action in human hair follicle dermal papilla cells (ELISA of culture supernatant); format: cell-based
Protocol: An amount of VEGF in a culture supernatant treated with isosaponarin for three days on human hair follicle dermal papilla cells was measured using ELISA kit for (product name: Human VEGF Quantikine ELISA, Cat. No. DVE00, distributed by R&D Systems, Inc.) The supernatant at the time of three-day culturing in the above section (1-3) was used as the culture supernatant treated with isosaponarin for three days. Specifically, in the above section (1-3), in order to measure absorbance, the culture supernatant was removed three days after addition of isosaponarin. In an evaluation test of VEGF production promoting action, the culture supernatant was collected three days after the addition of isosaponarin, and the supernatant was used as a sample. The experiment was carried out five times.
Hereinafter, a method of measuring VEGF will be described in detail. For the measurement of VEGF, the stock solution was used without diluting the supernatant.
Procedure 1-1. On the basis of a VEGF standard stock solution (2000 pg/mL), VEGF standard solutions of 1000, 500, 250, 125, 62.5, 31.2, and 15.6 pg/mL were prepared using a reaction buffer.
Procedure 1-2. Each of the VEGF standard solutions and 200 μL of sample (culture supernatant) were added to a VEGF immobilized microplate in which 50 μL of dilution was added to each well, and allowed to react at room temperature for 2 hours (primary reaction).
Procedure 1-3. The solutions in the wells were removed and the wells were washed 3 times with washing solution.
Procedure 1-4. 200 μL of horseradish peroxidase-conjugated VEGF antibody solution was added to each well and allowed to react for 2 hours at room temperature (secondary reaction).
Procedure 1-5. The solutions in the wells were removed and the wells were washed 3 times with the washing solution.
Procedure 1-6. 200 μL of substrate solution was added to each well and allowed to react for 20 minutes at room temperature.
Procedure 1-7. 50 μL of reaction stop solution was added to each well. After one minute mixing in a plate mixer, absorbance of each well was measured with a plate reader (measuring wavelength 450 nm).
Procedure 1-8. From a standard curve, VEGF concentration in the sample was calculated.
A non-addition control section was used as a comparison control section of isosaponarin.
As a positive control, the same experiment was performed to the case of adding minoxidil having final concentration of 30 μmol/L as well. A non-addition control section was used as a comparison control section of minoxidil.
as §1

[6] = test system: human hair follicle dermal papilla cells; assay: Cytotoxicity test using human hair follicle dermal papilla cells; conditions: three-day culture; for concentration showing toxicity to human hair follicle dermal papilla cells: FIGS. 5-7
Protocol: as §2, §3

[7] = Example 7, 0.1 μmol/L, three days

## coumaric acid
[1]; 0.001 μmol/L, FIG. 10
  FGF-7 gene expression vs non-addition control section: more significantly elevated
[1]; 0.01 μmol/L
  FGF-7 gene expression vs non-addition control section: did not show any significance
[2]
  concentration showing toxicity to human hair follicle dermal papilla cells: ≥ 2000 µM
[3]; 0.01 μmol/L
  cell-activating action vs non-addition control section: did not show significance
[3]; 0.1 μmol/L, FIG. 8
  cell-activating action vs non-addition control section: more significant cell-activating action
[3]; 10 μmol/L
  cell-activating action vs non-addition control section: did not show significance

## Nc1cc(N2CCCCC2)nc(N)[n+]1[O-] [minoxidil, 6-(1-piperidinyl)-2,4-pyrimidinediamine-3-oxide, reference compound]
[4]; Example 1, 30 μmol/L, one-day processing period
  cell-activating action vs non-addition control section: slightly more significant cell-activating action
[4]; Example 1, 30 μmol/L, three-day processing period
  cell-activating action vs non-addition control section: more significant cell-activating action
[5]; Example 2, 30 μmol/L, treated for three days, FIG. 4
  amount of VEGF vs non-addition control section: significantly increased
[5]; Example 7, 30 μmol/L, three days, FIG. 9
  amount of VEGF vs 0.2% ethanol experimental section: more significantly increased
[3]; 30 μmol/L, FIG. 8
  cell-activating action vs 0.2% ethanol experimental section: more significant cell-activating action

## COC(=O)/C=C/c1ccc(O)c(O)c1 [caffeic acid methyl ester]
[5]; [7]
  amount of VEGF vs non-addition control section: did not show any significance
[5]; Example 7, 1 μmol/L, three days, FIG. 9
  amount of VEGF vs non-addition control section: increased more significantly
[5]; Example 7, 10 μmol/L, three days
  amount of VEGF vs non-addition control section: did not show any significance
[6]
  concentration showing toxicity to human hair follicle dermal papilla cells: ≥ 16 µM

## Nc1ncnc2c1ncn2[C@@H]1O[C@H](CO)[C@@H](O)[C@H]1O [adenosine, reference compound]
[4]; Example 1, three-day processing period
  cell-activating action vs 0.1% DMSO experimental section: more significant cell-activating action
[4]; Example 7, three days, FIG. 8
  cell-activating action vs 0.1% DMSO experimental section: more significant cell-activating action
[5]; Example 7, 100 μmol/L, three days, FIG. 9
  amount of VEGF vs 0.1% DMSO experimental section: significantly increased the amount of VEGF on human hair follicle dermal papilla cell slightly more
[1]; 100 μmol/L, FIG. 10
  FGF-7 gene expression vs 0.1% DMSO experimental section: more significantly elevated FGF-7 gene expression

## O=c1cc(-c2ccc(O)cc2)oc2cc(O)cc(O)c12 [apigenin, 2-(4-hydroxyphenyl)-5-hydroxy-7-hydroxy-4H-1-benzopyran-4-one]
[5]; Example 7, 0.001 μmol/L to 0.01 μmol/L, three days, FIG. 9
  amount of VEGF vs non-addition control section: increased more significantly
[5]; [7]
  amount of VEGF vs non-addition control section: no significance
[3]; 0.001 μmol/L to 1 μmol/L, FIG. 8
  cell-activating action vs non-addition control section: more significant cell-activating action
[3]; 10 μmol/L
  cell-activating action vs non-addition control section: no significance
[6]
  concentration showing toxicity to human hair follicle dermal papilla cells: ≥ 80 µM

## O=c1cc(-c2ccc(O[C@@H]3O[C@H](CO)[C@@H](O)[C@H](O)[C@H]3O)cc2)oc2cc(O)c([C@@H]3O[C@H](CO)[C@@H](O)[C@H](O)[C@H]3O)c(O)c12 [isosaponarin, 4′-(β-D-glucopyranosyloxy)-5,7-dihydroxy-6-β-D-glucopyranosylflavone]
[4]; Example 1, 0.1 μmol/L to 1000 μmol/L, one-day processing period, FIG. 2
  cell-activating action vs non-addition control section: slightly more significant cell-activating action
[4]; Example 1, 0.1 μmol/L to 1000 μmol/L, three-day processing period, FIG. 3
  cell-activating action vs non-addition control section: more significant cell-activating action
[4]; Example 1, three-day processing period, minoxidil 30 μmol/L
  cell-activating action relative to the action in the case of treating with minoxidil: about three times
[5]; Example 2, 1000 μmol/L, treated for three days, FIG. 4
  amount of VEGF vs non-addition control section: significantly increased
[6]; FIG. 1
  concentration showing no toxicity to human hair follicle dermal papilla cells: ≤ 1000 µM
